Assay results published in ChEMBL document CHEMBL1201862, “PubChem BioAssay data set” (2004).
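Compound exposure: 48 hours, 5 concentrations, 96-well plates. The concentration for 50% growth inhibition is given as GI50.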 Activity calls are given as the source filed them. Cut-off read from the data, not from the text of the source: active = GI50 up to about 1.1 µM and inactive = higher.

What was measured:
Experiment in all cases: NCI tumour cell line growth inhibition, 48 h
786-0 = tested on: 786-0
A498 = tested on: A498
A549 = tested on: A549
ACHN = tested on: ACHN
BT-549 = tested on: BT-549
CAKI-1 = tested on: CAKI-1
COLO 205 = tested on: COLO 205
DU-145 = tested on: DU-145
EKVX = tested on: EKVX
HCC 2998 = tested on: HCC 2998
HCT-116 = tested on: HCT-116
HCT-15 = tested on: HCT-15
HOP-62 = tested on: HOP-62
HOP-92 = tested on: HOP-92
HT-29 = tested on: HT-29
Hs-578T = tested on: Hs-578T
IGROV-1 = tested on: IGROV-1
K562 = tested on: K562
KM12 = tested on: KM12
M14 = tested on: M14
MCF7 = tested on: MCF7
MDA-MB-231 = tested on: MDA-MB-231
MDA-MB-435 = tested on: MDA-MB-435
MDA-N = tested on: MDA-N
MOLT-4 = tested on: MOLT-4
Malme-3M = tested on: Malme-3M
NCI-H23 = tested on: NCI-H23
NCI-H460 = tested on: NCI-H460
NCI-H522 = tested on: NCI-H522
NCI/ADR-RES = tested on: NCI/ADR-RES
OVCAR-3 = tested on: OVCAR-3
OVCAR-4 = tested on: OVCAR-4
OVCAR-5 = tested on: OVCAR-5
OVCAR-8 = tested on: OVCAR-8
PC-3 = tested on: PC-3
RPMI-8226 = tested on: RPMI-8226
RXF 393 = tested on: RXF 393
SF-268 = tested on: SF-268
SF-295 = tested on: SF-295
SK-MEL-28 = tested on: SK-MEL-28
SK-MEL-2 = tested on: SK-MEL-2
SK-MEL-5 = tested on: SK-MEL-5
SK-OV-3 = tested on: SK-OV-3
SNB-19 = tested on: SNB-19
SNB-75 = tested on: SNB-75
SW-620 = tested on: SW-620
T47D = tested on: T47D
TK-10 = tested on: TK-10
U-251 = tested on: U-251
UACC-257 = tested on: UACC-257
UACC-62 = tested on: UACC-62
UO-31 = tested on: UO-31
CCRF-CEM = tested on: CCRF-CEM
HL-60 = tested on: HL-60
LOX IMVI = tested on: LOX IMVI
NCI-H226 = tested on: NCI-H226
SF-539 = tested on: SF-539
SN12C = tested on: SN12C

Measured: GI50

CC(C)(C)OC(=O)NCCC1CNc2ccccc21 (stereo not drawn)
inactive: 786-0 > 100 µM | A498 > 100 µM | A549 > 100 µM | ACHN > 100 µM | BT-549 > 100 µM | CAKI-1 > 100 µM | COLO 205 > 100 µM | DU-145 > 100 µM | EKVX > 100 µM | HCC 2998 > 100 µM | HCT-116 > 100 µM | HOP-62 > 100 µM | HOP-92 93.1 µM | HT-29 > 100 µM | Hs-578T > 100 µM | IGROV-1 > 100 µM | K562 > 100 µM | KM12 > 100 µM | M14 > 100 µM | MCF7 > 100 µM | MDA-MB-231 > 100 µM | MDA-MB-435 > 100 µM | MDA-N > 100 µM | MOLT-4 > 100 µM | Malme-3M > 100 µM | NCI-H23 > 100 µM | NCI-H460 > 100 µM | NCI-H522 > 100 µM | NCI/ADR-RES > 100 µM | OVCAR-3 > 100 µM | OVCAR-4 > 100 µM | OVCAR-5 > 100 µM | OVCAR-8 > 100 µM | PC-3 > 100 µM | RPMI-8226 > 100 µM | RXF 393 > 100 µM | SF-268 > 100 µM | SF-295 > 100 µM | SK-MEL-28 > 100 µM | SK-MEL-2 > 100 µM | SK-MEL-5 > 100 µM | SK-OV-3 > 100 µM | SNB-19 > 100 µM | SNB-75 > 100 µM | SW-620 > 100 µM | T47D > 100 µM | TK-10 > 100 µM | U-251 > 100 µM | UACC-257 > 100 µM | UACC-62 > 100 µM | UO-31 > 100 µM
> 100 µM: HCT-15

CC[C@H](C)[C@H](NC(=O)N(CCC#N)CCN(CCN(C(=O)N[C@@H](Cc1ccccc1)C(=O)OC)c1ccccc1)C(=O)N[C@H](C(=O)OC)C(C)C)C(=O)OC
21.8 µM: HCT-15
inactive: 786-0 4.68 µM | A498 19.6 µM | A549 32.7 µM | ACHN 13.8 µM | BT-549 22.9 µM | CAKI-1 19.8 µM | CCRF-CEM 22.8 µM | COLO 205 24.2 µM | DU-145 20 µM | EKVX 29.7 µM | HCC 2998 19 µM | HCT-116 19.2 µM | HOP-62 20.5 µM | HOP-92 6.24 µM | Hs-578T 23.7 µM | IGROV-1 19.1 µM | KM12 20.9 µM | LOX IMVI 20.7 µM | M14 20.5 µM | MCF7 27.5 µM | MDA-MB-231 18 µM | MDA-MB-435 16.6 µM | MDA-N 16.5 µM | MOLT-4 4.57 µM | Malme-3M 17.2 µM | NCI-H226 21.5 µM | NCI-H23 19.9 µM | NCI/ADR-RES 23.6 µM | OVCAR-3 17.4 µM | OVCAR-4 22.4 µM | OVCAR-5 25 µM | OVCAR-8 22.6 µM | PC-3 16.1 µM | RPMI-8226 10.7 µM | RXF 393 14.2 µM | SF-268 21.5 µM | SF-295 18.1 µM | SF-539 23.6 µM | SK-MEL-28 15 µM | SK-MEL-2 20 µM | SK-MEL-5 20.5 µM | SK-OV-3 20.9 µM | SN12C 25.6 µM | SNB-19 15.2 µM | SNB-75 19.9 µM | SW-620 21.4 µM | T47D 14.3 µM | TK-10 18.3 µM | U-251 16.2 µM | UACC-257 13.5 µM | UACC-62 11.5 µM | UO-31 18.1 µM
active: HL-60 0.879 µM

COC(=O)c1cn(CC(O)CCl)nn1 (stereo not drawn)
> 100 µM: HCT-15
inactive: A498 > 100 µM | A549 > 100 µM | ACHN > 100 µM | BT-549 > 100 µM | CAKI-1 > 100 µM | CCRF-CEM > 100 µM | COLO 205 > 100 µM | DU-145 > 100 µM | EKVX > 100 µM | HCC 2998 > 100 µM | HL-60 > 10 µM | HOP-62 > 100 µM | HOP-92 > 100 µM | HT-29 > 100 µM | Hs-578T > 100 µM | IGROV-1 > 100 µM | K562 > 100 µM | KM12 > 100 µM | LOX IMVI > 100 µM | M14 > 100 µM | MCF7 > 100 µM | MDA-MB-231 > 100 µM | MDA-MB-435 > 100 µM | MDA-N > 100 µM | MOLT-4 > 100 µM | Malme-3M > 100 µM | NCI-H23 > 100 µM | NCI-H460 > 100 µM | NCI-H522 > 100 µM | NCI/ADR-RES > 100 µM | OVCAR-3 > 100 µM | OVCAR-4 > 100 µM | OVCAR-5 > 100 µM | OVCAR-8 > 100 µM | PC-3 > 100 µM | RPMI-8226 > 100 µM | RXF 393 > 100 µM | SF-268 > 100 µM | SF-539 > 100 µM | SK-MEL-28 > 100 µM | SK-MEL-2 > 100 µM | SK-MEL-5 > 100 µM | SN12C > 100 µM | SNB-19 > 100 µM | SNB-75 > 100 µM | SW-620 > 100 µM | T47D > 100 µM | TK-10 > 100 µM | U-251 > 100 µM | UACC-257 > 100 µM | UO-31 > 100 µM
